Reference: patent publication US20070167526A1, “Topical mecamylamine formulations for ocular administration and uses thereof” (priority 2005, published 2007)

Experiments:
in vivo = conditions: rabbit
Description: As used herein, the term “topically administered to a rabbit eye,” and cognates thereof, refers to the administration of a particular mecamylamine formulation, including formulations of pharmaceutically acceptable salts of mecamylamine, by applying 100 μL of the mecamylamine formulation to the cornea of each eye (2 drops of 50 μL each), wherein at the time of application the bottom eyelid is separated from the surface of the eye to make a pocket to ensure the entire dose is retained in contact with the eye. When the concentration of mecamylamine in plasma and in the retinal/choroidal tissue is to be measured in connection with the calculation of the ratio of the mecamylamine concentration in the retina/choroid versus the concentration of mecamylamine in plasma, the concentration of each is determined 1 hour after application of the formulation. The amount of mecamylamine present in plasma and the retina/choroid is determined by LC/MS/MS using internal standards of dextromethorphan and diphenhydramine and a standard of known concentration of mecamylamine. An exemplary method of administration of the topical formulation of mecamylamine is provided in Example 5. An exemplary LC/MS/MS method for determining the ratios described herein is given in detail in Example 6. When the mean maximum concentration of mecamylamine in plasma is to be determined, the concentration is again determined as described above and in Example 6. The term “mean maximum concentration of mecamylamine,” and its cognates, as used herein refers to the mean maximum concentration of mecamylamine measured in plasma when monitored over a 6 hour time period after administration of the formulation. When the mean total concentration of mecamylamine in plasma is to be determined, the concentration is again determined as described above and in Example 6. The term “total concentration of mecamylamine in plasma measured as the area under the curve,” (AUC) and cognates thereof, refers to summation of the areas under plot of the drug plasma versus time using a simple trapezoidal method with drug plasma time points taken to include 1, 3 and 6 hours after topical administration. Determination of AUC for corneal tissue, retinal/choroid tissue and aqueous humor is determined similarly. When the concentration of mecamylamine in plasma and in the corneal tissue is to be measured in connection with the calculation of the ratio of the mecamylamine concentration in the cornea (or aqueous humor) versus the concentration of mecamylamine in plasma, the concentration of each is determined 1 hour after application of 50 μl of the formulation. The amount of mecamylamine present in plasma and the cornea (or aqueous humor) is determined by LC/MS/MS using internal standards of dextromethorphan and diphenhydramine and a standard of known concentration of mecamylamine. An exemplary method of administration of the topical formulation of mecamylamine is provided in Example 5. An exemplary LC/MS/MS method for determining the ratios described herein is given in detail in Example 6.
A single dose of a polymer-free solution, gellan gum formulation and hypromellose formulation containing 3% mecamylamine hydrochloride, was instilled in the eyes of rabbits (Dutch-belted male rabbits (Convance, Denver, Pa.) minimum age 2 months and with weights of 1.6 to 1.8 kg). Two animals were euthanized 30 minutes, 1 hour or 3 hours after dosing.
Sample of blood and ocular tissue (obtained as described in previous examples) were analyzed for mecamylamine concentration using an LC MS/MS method up to 3 hours after dosing.
The area-under-the-curve (AUC) was calculated using a trapezoidal rule on a population pharmacokinetic basis (see Table 9).

[1] = test system: VEGF-induced endothelial tube formation; assay: VEGF-induced endothelial tube formation in vitro; type: cell-based
[2] = Ocular bioavailability following topical ocular administration of 2% isotonic or in situ gel-forming solution (Examples 5, 6); type: in vivo, New Zealand White rabbit; conditions: rabbit
Source text: The objective of this study was to determine the pharmacokinetics of mecamylamine, administered either as an isotonic solution (prepared as in Example 3) or in situ gel-forming solution (as prepared in Example 4), in the plasma, vitreous humor and retina of the eyes when applied topically to the surface of the eye.
The study comprised 2 groups (N=4/group; 8 rabbits total) of male NZW rabbits each weighing approximately 2-3 kg and obtained from Kralek Farms (Turlock, Calif.). […] For both groups, samples of the vitreous(≧0.1 ml) were withdrawn at 6 time points (one withdrawal per eye): pre-dose, 30 min, 1 (sacrifice), 3, 6, 12, and 24 (sacrifice) hr. At all time points, only duplicate vitreous fluid samples (each coming from different eye from different animals) were collected in order to minimize pain and damage to rabbit eyes.
Blood for plasma(≧0.5 ml) and intra-vitreal fluid (˜0.1 ml) were collected at 0, 30, 60 min from each animal with sacrifice for 2 animals/group at 60 minutes. […]
A 0.5 mg/mL stock of mecamylamine hydrochloride USP in DMSO was prepared and used as the working standard to produce the calibration standards for quantification of the mecamylamine content in various samples collected as described above. […]
Each tissue sample collected was weighed. […] The samples were analyzed using LC/MS/MS and quantified using the calibration standards prepared in plasma as described above.

In the case of CNC1(C)C2CCC(C2)C1(C)C (stereo not shown) [mecamylamine, N-2,3,3-tetramethylbicyclo(2.2.1)heptan-2-amine], the Kp at 1 h (in vivo; male, Dutch-belted, in vivo) is reported as no less than 1000, the “ratio of the concentration of mecamylamine in the aqueous humor versus plasma” value (in vivo; male, Dutch-belted, in vivo, 1 h) is reported as “at least 50:1” and the AUC (in vivo; male, Dutch-belted, in vivo, topical or ocular) is reported as less than 85 ng·h/mL. For the same compound, the “safety issues during the study” value (in vivo; single ocular dose) was “No safety issues arose”, the “VEGF-induced endothelial tube formation” value [1] was “inhibited” and the “retinal/choroidal tissue:plasma ratio, topical compared to systemic administration” value [2] was “at least 40 fold”. The “levels of mecamylamine in erythrocytes (red blood cells) versus plasma” value ([2]; topical ocular) was “comparable”.
